According to ChEMBL document CHEMBL1129125, “Tc-99m-labeled fibrinogen receptor antagonists: design and synthesis of cyclic RGD peptides for the detection of thrombi” (Bioorg Med Chem Lett, 1996):

Key:
Assay type in all cases: functional, organism-based
Details in all cases: Canis lupus familiaris; tested as the 125I-labelled form
[1] = species on record: Canis familiaris; experiment: Thrombus and blood ratio was determined in the canine arteriovenous shunt model in arterial rich condition.
[2] = species on record: Canis familiaris; experiment: Thrombus and blood ratio was determined in the canine arteriovenous shunt model in venous rich condition.
[3] = species on record: Canis familiaris; experiment: Compound was tested for uptake in thrombus in the canine arteriovenous shunt model in venous rich condition.
[4] = species on record: Canis familiaris; experiment: Compound was tested for uptake in thrombus in the canine arteriovenous shunt model in arterial rich condition.

| SMILES | Uptake ratio [1] | Uptake ratio [2] | ID/g [3] | ID/g [4] |
| --- | --- | --- | --- | --- |
| CN1C(=O)[C@@H](CCCCNC(=O)CCc2ccc(O)c(I)c2)NC(=O)c2cccc(c2)CNC(=O)[C@H](CC(=O)O)NC(=O)CNC(=O)[C@@H]1CCCN=C(N)N | 43.9 | 7.82 | 0.45% | 2.6% |
| CN1C(=O)[C@@H](Cc2ccc(O)c(I)c2)NC(=O)c2cccc(c2)CNC(=O)[C@H](CC(=O)O)NC(=O)CNC(=O)[C@@H]1CCCN=C(N)N | 173 | 19.3 | 0.25% | 1.81% |
